Test results from patent US8680113B2, “BMI-1 protein expression modulators” (PTC Therapeutics, Inc., priority 2008, dated 2014).

tested on: Bmi-1; assay: Sandwich ELISA Assay (Bmi-1 ELISA in HT-1080 cells); assay type: cell-based, human
Description: Cell Seeding and Compound Treatment (Day 1):
HT-1080 cells were seeded at 8000 cells/well (50 uL) in 96-well tissue culture plates. After the cells become adherent (3-4 hours), 2× diluted stocks of compounds in 50 uL DMEM containing 1% DMSO (final DMSO concentration was 0.5%) were added and the plates were incubated at 37° C. under 5% CO2 for 40-48 hours
ELISA Plate First Antibody Preparation (Day 2):
The First Antibody (Millipore Mouse, monoclonal to mouse Bmi-1, clone F6, catalog #05-637) diluted to 2 ug/mL in PBS was added (100 uL) to each well of a Nunc MaxiSorp 96-well ELISA plate. The plate was covered with a plate seal and allowed to stand overnight.
Cell Lysate Preparation (Day 3):
Fresh 1× Lysis buffer was prepared on the day of the assay as follows: 1 mM EDTA, 150 mM NaCl, 0.5% Triton-X 100, 10 mM NaF, 20 mM B-Glycerophosphate, 1 mM DTT (in PBS, pH 7.2-7.4) and 1×HALT protease inhibitor cocktail (Pierce #78410).
1× Lysis Buffer (40 uL) was added to each well and the plate was shaken for 5-10 minutes on an orbital shaker to allow cell lysis, then Diluent (1% BSA in PBS in 0.5% NP40) (100 uL) was added to each well.
The Bmi-1 standard curve was prepared in Diluent at the following concentrations of protein: 8000, 4000, 2000, 1000, 500, 250, 125, 0 pg/mL The Bmi-1 Recombinant Protein Standard (Novus Biologicals PCGF4 Recombinant Protein (P01), catalog #H00000648-P01) used in the standard curve was stored at −80° C., and on first thaw, diluted to 10 ug/uL in Blocking Buffer (1% BSA in PBS; BSA: Fisher Scientific Catalog #1600-100) before being aliquoted and refrozen at −80° C. Aliquots can be kept at 4° C. and reused after first thaw, but only for 1-2 weeks. The Bmi-1 Recombinant Protein Standard contains a GST-fusion tag and thus will show up on western blots around 70 Kda.
The prepared ELISA plate was washed 3× with Wash Buffer (0.05% Tween-20 in PBS). The final wash was removed from the plate and the plate was blotted dry on paper towels. Blocking Buffer (300 uL) (1% BSA in PBS) was added per well. The plate was covered with a plate seal and incubated at room temperature for 1 hour. The blocked plate was washed 3× with Wash Buffer, the final wash was removed and the plate was blotted dry on paper towels. The previously prepared samples and standards were added (at 100 uL/well) and the plate was covered with a plate seal and incubated at 4° C. overnight.
The prepared ELISA plate was removed from 4° C., incubated at room temperature for 30 minutes, then washed and blotted dry as previously described for Day 3. The Second Antibody (Cell Signaling Rabbit anti-Bmi-1, Cat#2830) diluted to 1:600 in Blocking Buffer was added (100 uL) to each well, except as needed for background control wells. The plate was covered with a plate seal and incubated for 1.5 hrs at room temperature.
The ELISA plate was washed and blotted dry as previously described. The Third Antibody (Cell Signaling HRP conjugated anti-rabbit IgG (CellSignaling, Cat#:7074) diluted to 1:300 in Blocking Buffer was added (100 uL) to each well, except as needed for background control wells. The plate was incubated for 1 hr at room temperature.
The plate was washed and blotted dry as previously described, then prepared TMB substrate (TMB substrate kit, Pierce catalog #34021) (prepared by mixing kit reagents 1:1) (100 uL) was added per well. The plate was incubated for 20-30 minutes at room temperature in the dark, then Stop Solution (2 M sulfuric acid in water) (50 uL) was added per well. The plates were read at OD450 (experimental) and OD570 (reference).

Row | IC50 [nM] | Compound
1 | < 500 | CCc1nc2ncccn2c1-c1csc(Nc2c(Br)cc(OC)cc2Br)n1 [Cpd 146, N-(2,6-dibromo-4-methoxyphenyl)-4-(2-ethylimidazo[1,2-a]pyrimidin-3-yl)-1,3-thiazol-2-amine]
2 | < 500 | CCN(CC)c1ccc(Nc2nc(-c3c(C)nc4ccc(C)cn34)cs2)cc1 [Cpd 75, N′-[4-(2,6-dimethylimidazo[1,2-a]pyridin-3-yl)-1,3-thiazol-2-yl]-N,N-diethylbenzene-1,4-diamine]
3 | < 500 | Cc1nc2ccc(Cl)cn2c1-c1csc(Nc2ccc(Cl)cc2)n1 [Cpd 60, 4-(6-chloro-2-methylimidazo[1,2-a]pyridin-3-yl)-N-(4-chlorophenyl)-1,3-thiazol-2-amine]
4 | < 500 | CCCc1nc2ncccn2c1-c1csc(Nc2ccccc2)n1 [Cpd 187, N-phenyl-4-(2-propylimidazo[1,2-a]pyrimidin-3-yl)-1,3-thiazol-2-amine]
5 | < 500 | CCc1nc2ncccn2c1-c1csc(Nc2ccc(OC)c(Cl)c2)n1 [Cpd 153, N-(3-chloro-4-methoxyphenyl)-4-(2-ethylimidazo[1,2-a]pyrimidin-3-yl)-1,3-thiazol-2-amine]
6 | < 500 | Cc1nc2ccccn2c1-c1csc(Nc2ccc(F)cc2F)n1 [Cpd 203, N-(2,4-difluorophenyl)-4-(2-methylimidazo[1,2-a]pyridin-3-yl)-1,3-thiazol-2-amine]
7 | < 500 | Cc1nc2ncccn2c1-c1ccnc(N(C)c2ccc(I)cc2)n1 [Cpd 125, N-(4-iodophenyl)-N-methyl-4-(2-methylimidazo[1,2-a]pyrimidin-3-yl)pyrimidin-2-amine]
8 | < 500 | COc1ccc(Nc2nc(-c3c(C)nc4ccc(C)cn34)cs2)cc1 [Cpd 71, 4-(2,6-dimethylimidazo[1,2-a]pyridin-3-yl)-N-(4-methoxyphenyl)-1,3-thiazol-2-amine]
9 | < 500 | COc1cccc(Nc2nc(-c3c(C)nc4ccccn34)cs2)c1 [Cpd 188, N-(3-methoxyphenyl)-4-(2-methylimidazo[1,2-a]pyridin-3-yl)-1,3-thiazol-2-amine]
10 | < 500 | FC(F)(F)c1nc2ccccn2c1-c1csc(Nc2ccc3c(c2)OCO3)n1 [Cpd 195, N-(1,3-benzodioxol-5-yl)-4-[2-(trifluoromethyl)imidazo[1,2-a]pyridin-3-yl]-1,3-thiazol-2-amine]
11 | < 500 | Cc1ccc(Nc2nc(-c3c(C)nc4c(C)cccn34)cs2)cc1 [Cpd 223, 4-(2,8-dimethylimidazo[1,2-a]pyridin-3-yl)-N-(4-methylphenyl)-1,3-thiazol-2-amine]
12 | < 500 | COc1ccc(Nc2nc(-c3c(C)nc4cc(C)ccn34)cs2)cc1Cl [Cpd 67, N-(3-chloro-4-methoxyphenyl)-4-(2,7-dimethylimidazo[1,2-a]pyridin-3-yl)-1,3-thiazol-2-amine]
13 | < 500 | Fc1ccc(Nc2nccc(-c3cnc4ncccn34)n2)cc1 [Cpd 268, N-(4-fluorophenyl)-4-(imidazo[1,2-a]pyrimidin-3-yl)pyrimidin-2-amine]
14 | < 500 | Cc1nc2ccccn2c1-c1ccnc(Nc2cccc(O)c2)n1 [Cpd 190, 3-{[4-(2-methylimidazo[1,2-a]pyridin-3-yl)pyrimidin-2-yl]amino}phenol]
15 | < 500 | COc1cccc(Nc2nc(-c3c(C)nc4c(Br)cccn34)cs2)c1 [Cpd 232, 4-(8-bromo-2-methylimidazo[1,2-a]pyridin-3-yl)-N-(3-methoxyphenyl)-1,3-thiazol-2-amine]
16 | < 500 | Ic1ccc(Nc2nc(-c3cnc4ccccn34)cs2)cc1 [Cpd 79, 4-(imidazo[1,2-a]pyridin-3-yl)-N-(4-iodophenyl)-1,3-thiazol-2-amine]
17 | < 500 | CCCc1nc2ccccn2c1-c1csc(Nc2ccc3c(c2)OCO3)n1 [Cpd 175, N-(1,3-benzodioxol-5-yl)-4-(2-propylimidazo[1,2-a]pyridin-3-yl)-1,3-thiazol-2-amine]

Row | IC50 [nM] | Compound
18 | < 500 | CCc1nc2ncccn2c1-c1ccnc(Nc2ccc(Br)cc2)n1 [Cpd 271, N-(4-bromophenyl)-4-(2-ethylimidazo[1,2-a]pyrimidin-3-yl)pyrimidin-2-amine]
19 | < 500 | Fc1cccc(Nc2nccc(-c3cnc4ccccn34)n2)c1 [Cpd 255, N-(3-fluorophenyl)-4-(imidazo[1,2-a]pyridin-3-yl)pyrimidin-2-amine]
20 | < 500 | Cc1nc2ccc(Cl)cn2c1-c1csc(Nc2ccc(C(C)C)cc2)n1 [Cpd 91, 4-(6-chloro-2-methylimidazo[1,2-a]pyridin-3-yl)-N-[4-(propan-2-yl)phenyl]-1,3-thiazol-2-amine]
21 | < 500 | c1cnc2ncc(-c3ccnc(Nc4ccc5c(c4)OCO5)n3)n2c1 [Cpd 259, N-(1,3-benzodioxol-5-yl)-4-(imidazo[1,2-a]pyrimidin-3-yl)pyrimidin-2-amine]
22 | < 500 | Cc1nc2ccccn2c1-c1csc(Nc2cccc(O)c2)n1 [Cpd 35, 3-{[4-(2-methylimidazo[1,2-a]pyridin-3-yl)-1,3-thiazol-2-yl]amino}phenol]
23 | < 500 | CC(=O)c1ccc(N(C)c2nccc(-c3c(C)nc4ccccn34)n2)cc1 [Cpd 167, 1-(4-{methyl[4-(2-methylimidazo[1,2-a]pyridin-3-yl)pyrimidin-2-yl]amino}phenyl)ethanone]
24 | < 500 | CC(=O)c1ccc(Nc2nc(-c3c(C)nc4ccc(F)cn34)cs2)cc1 [Cpd 159, 1-(4-{[4-(6-fluoro-2-methylimidazo[1,2-a]pyridin-3-yl)-1,3-thiazol-2-yl]amino}phenyl)ethanone]
25 | < 500 | Cc1ccc(N(C)c2nccc(-c3c(C)nc4ccccn34)n2)cc1 [Cpd 189, N-methyl-4-(2-methylimidazo[1,2-a]pyridin-3-yl)-N-(4-methylphenyl)pyrimidin-2-amine]
26 | < 500 | COc1cccc(Nc2nc(-c3c(C)nc4ccc(Cl)cn34)cs2)c1 [Cpd 217, 4-(6-chloro-2-methylimidazo[1,2-a]pyridin-3-yl)-N-(3-methoxyphenyl)-1,3-thiazol-2-amine]
27 | < 500 | COc1ccc(Nc2nc(-c3c(C)nc4ccc(Cl)cn34)cs2)cc1OC [Cpd 207, 4-(6-chloro-2-methylimidazo[1,2-a]pyridin-3-yl)-N-(3,4-dimethoxyphenyl)-1,3-thiazol-2-amine]
28 | < 500 | COc1ccc(Nc2nccc(-c3c(C)nc4ncccn34)n2)cc1 [Cpd 115, N-(4-methoxyphenyl)-4-(2-methylimidazo[1,2-a]pyrimidin-3-yl)pyrimidin-2-amine]
29 | < 500 | Cc1nc2ccccn2c1-c1ccnc(Nc2cccc(N(C)C)c2)n1 [Cpd 118, N,N-dimethyl-N′-[4-(2-methylimidazo[1,2-a]pyridin-3-yl)pyrimidin-2-yl]benzene-1,3-diamine]
30 | < 500 | Brc1cccc(Nc2nccc(-c3cnc4ccccn34)n2)c1 [Cpd 256, N-(3-bromophenyl)-4-(imidazo[1,2-a]pyridin-3-yl)pyrimidin-2-amine]
31 | < 500 | Cc1nc2ccc(Cl)cn2c1-c1csc(Nc2cccc(Br)c2)n1 [Cpd 212, N-(3-bromophenyl)-4-(6-chloro-2-methylimidazo[1,2-a]pyridin-3-yl)-1,3-thiazol-2-amine]
32 | < 500 | Cc1nc2c(Br)cccn2c1-c1csc(Nc2ccccc2)n1 [Cpd 231, 4-(8-bromo-2-methylimidazo[1,2-a]pyridin-3-yl)-N-phenyl-1,3-thiazol-2-amine]
33 | < 500 | Cc1nc2c(O)cccn2c1-c1csc(Nc2ccc3c(c2)OCO3)n1 [Cpd 94, 3-[2-(1,3-benzodioxol-5-ylamino)-1,3-thiazol-4-yl]-2-methylimidazo[1,2-a]pyridin-8-ol]
34 | < 500 | Cc1nc2ncccn2c1-c1csc(Nc2c(Br)cc(Br)cc2Br)n1 [Cpd 22, 4-(2-methylimidazo[1,2-a]pyrimidin-3-yl)-N-(2,4,6-tribromophenyl)thiazol-2-amine]
